What was measured:
[1] = tested on: 5FU resistant (5FUR) colon cancer cell lines; assay: Cell viability of 5FU resistant colon cancer cell lines; format: cell-based; conditions: combination of 5FU
NF-κB = NF-κB EMSA assay; format: cell-based, mouse; conditions: LPS 50 ng/mL, 6 hr
Protocol: NF-κB EMSA assay: RAW 264.7 cells or BMDM were plated in 100 mm dishes (1×10^6) in DMEM supplemented with 10% fetal bovine serum (FBS), 100 U/ml penicillin, and […]. Cells were allowed to grow for 24 hr and after incubation, cells were treated with LPS (50 ng/mL) with and without UroA (50 μM) and UAS03 (50 μM) for 6 hr. After treatments, culture medium was removed and washed with PBS. Cells were scraped and pelleted down in PBS. Supernatant was discarded and pellet was used for isolation of nuclear and cytosolic protein using NE-PER Nuclear and Cytoplasmic kit (Thermo Scientific; Cat #78833). Later nuclear protein (2 μg) was used for EMSA using Non-Radioactive EMSA Kits with IR Fluo-Probes for Nuclear factor kappa B p65 (Viagene Biotech Inc Cat #IRTF282 60).

BMDM = assay: Nrf2-dependent pathways in macrophages; format: cell-based, mouse; conditions: 50 μM
Protocol: The data is separately presented for each time point (No TNBS− Solid black line; Veh+TNBS− Solid red line; UroA+TNBS− Solid blue line; UAS03+TNBS− Solid purple line). The data is separately presented for each time point. (No TNBS− Solid black line; Veh+TNBS− Solid red line; UroA+TNBS− Solid blue line; UAS03+TNBS− Solid purple line). (C-G) UroA/UAS03 activate Nrf2-dependent pathways in BMDM. (C) Wild type BMDM were isolated and cultured for 7 days. BMDM were treated with Veh (0.01% DMSO) or UroA or UAS03 (50 μM) for 6 h and total RNA was isolated. Nrf2 levels were measured using SyBR green Real Time PCR method. (D) Veh or UroA or UAS03 treated BMDM cell lysates were immunoblotted for Nrf2. (E) The nuclear and cytosolic fractions of BMDMs were immnunobloted for Nr2. Lamin B and β-actin were used as normalizing proteins. […] The expression of Nrf2 was determined by immunofluorescence staining using anti-Nrf2 followed by secondary antibody tagged with Alexa-488 dye and DAPI was used to stain nucleus. The fluorescence images were captured using Nikon A1R confocal microscope at 60× magnification and green fluorescence (n=>15 cells) was measured using Nikon elements software. […] NF-κB activation was evaluated by EMSA assays. […] The fold change over basal was calculated using its own control. […]

Caco2 cells = assay: LPS depletion of Ocln in colon epithelial cells; format: cell-based, human; conditions: 10, 25, 50 μM, 24 h
Protocol: FIG. 12: UroA/UAS03 protect from LPS or alcohol induced depletion of Ocln and protected permeability. (A) Caco 2 cells were treated with LPS for 24 h at indicated doses and Western blots performed to determine expression of Ocln. (B) Caco2 cells were treated with LPS in combination with UroA or UAS03 (10, 25, 50 μM) for 24 h and determined Ocln expression.
UroA/UAS03 upregulate TJ proteins and protect against LPS induced damage: TJ proteins such as Cldn4, ZO-1, Ocln play a role in maintaining the gut epithelial integrity and protect the gut from external insults such as LPS. We investigated UroA/UAS03 effects on TJ protein regulation in colon epithelial cells, HT-29 and Caco2 cells. […] ALD is associated with disrupted TJs, increased permeability, inflammation and endotoxemia. Ocln is a tight junction protein expressed in intestinal epithelium and plays a role in maintenance of gut barrier function. We examined whether UroA/UAS03 can protect LPS (endotoxin) depletion of Ocln in colon epithelial cells. […] For this purpose, we have utilized Caco-2 monolayer cells on transwell membranes and performed transepithelial electrical resistance (TEER) and FITC-dextran permeability assays.

## O=c1oc2cc(O)ccc2c2ccc(O)cc12 [UroA, 3,8-dihydroxy-6H-dibenzo[b,d]pyran-6-one]
[1]
  cell viability of 5FUR colon cancer cell lines, combination with 5FU: reduced cell viability
NF-κB
  LPS-induced NF-κB activation in macrophages: reduced the NF-κB activation
BMDM
  Nrf2 expression, nuclear translocation and HO1 in macrophages: upregulated Nrf2 expression and induced its nuclear translocation
Caco2 cells
  LPS depletion of Ocln: protected from depletion of Ocln

## Oc1ccc2c(c1)COc1cc(O)ccc1-2 [UAS03, 6H-benzo[c]chromene-3,8-diol]
[1]
  cell viability of 5FUR colon cancer cell lines, combination with 5FU: reduced cell viability
NF-κB
  LPS-induced NF-κB activation in macrophages: reduced the NF-κB activation
BMDM
  Nrf2 expression, nuclear translocation and HO1 in macrophages: upregulated Nrf2 expression and induced its nuclear translocation
Caco2 cells
  LPS depletion of Ocln: protected from depletion of Ocln
